Test results from patent US20230172209A1, “FUNGICIDAL COMPOSITIONS” (SYNGENTA CROP PROTECTION AG, priority 2020, published 2023).

Assays:
Format in all cases: cell-based
Septoria glycines = Septoria glycines growth inhibition in liquid culture (microtiter plate, visual)
Source text: A synergistic effect exists whenever the action of an active ingredient combination is greater than the sum of the actions of the individual components. The action to be expected E for a given active ingredient combination obeys the so-called COLBY formula and can be calculated as follows (COLBY, S. R. “Calculating synergistic and antagonistic responses of herbicide combination”. Weeds, Vol. 15, pages 20-22; 1967): • ppm=milligrams of active ingredient (=a.i.) per liter of spray mixture • X=% action by active ingredient A) using p ppm of active ingredient • Y=% action by active ingredient B) using q ppm of active ingredient. According to COLBY, the expected (additive) action of active ingredients A)+B) using p+q ppm of active ingredient is: If the action actually observed (O) is greater than the expected action (E), then the action of the combination is super-additive, i.e. there is a synergistic effect. In mathematical terms, synergism corresponds to a positive value for the difference of (O-E). In the case of purely complementary addition of activities (expected activity), said difference (O-E) is zero. A negative value of said difference (O-E) signals a loss of activity compared to the expected activity. Septoria glycines (Brown Spot): Conidia of the fungus from cryogenic storage were directly mixed into nutrient broth ([…] potato dextrose broth). A DMSO solution of the test compounds was placed into a microtiter plate (96-well format) and the nutrient broth containing the fungal spores was added to it. The test plates were incubated at 24° C. and the inhibition of growth was determined visually after 72 hrs.

Septoria tritici = Septoria tritici growth inhibition in liquid culture (microtiter plate, photometric)
Source text: A synergistic effect exists whenever the action of an active ingredient combination is greater than the sum of the actions of the individual components. The action to be expected E for a given active ingredient combination obeys the so-called COLBY formula and can be calculated as follows (COLBY, S. R. “Calculating synergistic and antagonistic responses of herbicide combination”. Weeds, Vol. 15, pages 20-22; 1967): • ppm=milligrams of active ingredient (=a.i.) per liter of spray mixture • X=% action by active ingredient A) using p ppm of active ingredient • Y=% action by active ingredient B) using q ppm of active ingredient. According to COLBY, the expected (additive) action of active ingredients A)+B) using p+q ppm of active ingredient is: If the action actually observed (O) is greater than the expected action (E), then the action of the combination is super-additive, i.e. there is a synergistic effect. In mathematical terms, synergism corresponds to a positive value for the difference of (O-E). In the case of purely complementary addition of activities (expected activity), said difference (O-E) is zero. A negative value of said difference (O-E) signals a loss of activity compared to the expected activity. Septoria tritici (Leaf Blotch): Conidia of the fungus from cryogenic storage were directly mixed into nutrient broth (PDB potato dextrose broth). A DMSO solution of the test compounds was placed into a microtiter plate (96-well format) and the nutrient broth containing the fungal spores was added to it. The test plates were incubated at 24° C. and the inhibition of growth was determined photometrically after 72 hrs.

Corynespora cassiicola = Corynespora cassiicola growth inhibition in liquid culture (microtiter plate, photometric); settings: for Observed Activity (%): A-1.3 0 ppm
Source text: A synergistic effect exists whenever the action of an active ingredient combination is greater than the sum of the actions of the individual components. The action to be expected E for a given active ingredient combination obeys the so-called COLBY formula and can be calculated as follows (COLBY, S. R. “Calculating synergistic and antagonistic responses of herbicide combination”. Weeds, Vol. 15, pages 20-22; 1967): • ppm=milligrams of active ingredient (=a.i.) per liter of spray mixture • X=% action by active ingredient A) using p ppm of active ingredient • Y=% action by active ingredient B) using q ppm of active ingredient. According to COLBY, the expected (additive) action of active ingredients A)+B) using p+q ppm of active ingredient is: If the action actually observed (O) is greater than the expected action (E), then the action of the combination is super-additive, i.e. there is a synergistic effect. In mathematical terms, synergism corresponds to a positive value for the difference of (O-E). In the case of purely complementary addition of activities (expected activity), said difference (O-E) is zero. A negative value of said difference (O-E) signals a loss of activity compared to the expected activity. Corynespora cassiicola (Target Spot of Soybean, Target Leaf Spot of Tomato): Conidia of the fungus from cryogenic storage were directly mixed into nutrient broth (PDB potato dextrose broth). A DMSO solution of the test compounds was placed into a microtiter plate (96-well format) and the nutrient broth containing the fungal spores was added to it. The test plates were incubated at 24° C. and the inhibition of growth was determined photometrically after 3-4 days at 620 nm. Rates and results are set out in the following tables: […]

[1] = tested on: Mycosphaerella arachidis Syn. Cercospora arachidicola; assay: Mycosphaerella arachidis growth inhibition in liquid culture (microtiter plate, photometric); settings: for Observed Activity (%): A-1.3 0 ppm
Source text: A synergistic effect exists whenever the action of an active ingredient combination is greater than the sum of the actions of the individual components. The action to be expected E for a given active ingredient combination obeys the so-called COLBY formula and can be calculated as follows (COLBY, S. R. “Calculating synergistic and antagonistic responses of herbicide combination”. Weeds, Vol. 15, pages 20-22; 1967): • ppm=milligrams of active ingredient (=a.i.) per liter of spray mixture • X=% action by active ingredient A) using p ppm of active ingredient • Y=% action by active ingredient B) using q ppm of active ingredient. According to COLBY, the expected (additive) action of active ingredients A)+B) using p+q ppm of active ingredient is: If the action actually observed (O) is greater than the expected action (E), then the action of the combination is super-additive, i.e. there is a synergistic effect. In mathematical terms, synergism corresponds to a positive value for the difference of (O-E). In the case of purely complementary addition of activities (expected activity), said difference (O-E) is zero. A negative value of said difference (O-E) signals a loss of activity compared to the expected activity. Mycosphaerella arachidis Syn. Cercospora arachidicola (Brown Leaf Spot of Peanut): Conidia of the fungus from cryogenic storage were directly mixed into nutrient broth (PDB potato dextrose broth). A DMSO solution of the test compounds was placed into a microtiter plate (96-well format) and the nutrient broth containing the fungal spores was added to it. The test plates were incubated at 24° C. and the inhibition of growth was determined photometrically after 5-6 days at 620 nm.

## CNC(=O)C(OC)c1ccccc1COc1cc(C)ccc1C (centres unmarked) [Mandestrobin]
Septoria glycines; Table 17: A-1.3 0 ppm, Mandestrobin 0.125 ppm
  Observed Activity (%): 50%
Septoria glycines; Table 17: A-1.3 0 ppm, Mandestrobin 0.25 ppm
  Observed Activity (%): 70%
Septoria glycines; Table 17: A-1.3 0 ppm, Mandestrobin 0.5 ppm
  Observed Activity (%): 90%
Septoria glycines; Table 18: A-1.3 0 ppm, Mandestrobin 0.25 ppm
  Observed Activity (%): 70%
Septoria glycines; Table 18: A-1.3 0 ppm, Mandestrobin 0.5 ppm
  Observed Activity (%): 70%
Septoria glycines; Table 18: A-1.3 0 ppm, Mandestrobin 1 ppm
  Observed Activity (%): 90%

## CN1OC(c2ccc(Cl)cc2)CC1(C)c1cccnc1 (centres unmarked) [Pyrisoxazole]
Septoria tritici; Table 11: A-1.3 0 ppm, Pyrisoxazole 0.25 ppm
  Observed Activity (%): 0%
Septoria tritici; Table 11: A-1.3 0 ppm, Pyrisoxazole 0.5 ppm
  Observed Activity (%): 20%
Septoria tritici; Table 12: A-1.3 0 ppm, Pyrisoxazole 0.0625 ppm
  Observed Activity (%): 0%
Septoria tritici; Table 12: A-1.3 0 ppm, Pyrisoxazole 0.125 ppm
  Observed Activity (%): 0%
Septoria tritici; Table 12: A-1.3 0 ppm, Pyrisoxazole 0.25 ppm
  Observed Activity (%): 0%
Septoria tritici; Table 12: A-1.3 0 ppm, Pyrisoxazole 0.5 ppm
  Observed Activity (%): 70%
Septoria tritici; Table 12: A-1.3 0 ppm, Pyrisoxazole 1 ppm
  Observed Activity (%): 90%
Corynespora cassiicola; Pyrisoxazole 0.5 ppm
  Observed Activity (%): 20%
Corynespora cassiicola; Pyrisoxazole 1 ppm
  Observed Activity (%): 70%

## O=C(NC1CCC1c1ccc(Cl)cc1Cl)c1cccnc1C(F)(F)F (stereo in doubt) [Cyclobutrifluram]
Septoria glycines; Table 13: A-1.3 0 ppm, Cyclobutrifluram 0.05 ppm
  Observed Activity (%): 70%
Septoria glycines; Table 13: A-1.3 0 ppm, Cyclobutrifluram 0.1 ppm
  Observed Activity (%): 90%
Septoria glycines; Table 13: A-1.3 0 ppm, Cyclobutrifluram 0.2 ppm
  Observed Activity (%): 90%
Septoria glycines; Table 14: A-1.3 0 ppm, Cyclobutrifluram 0.0125 ppm
  Observed Activity (%): 20%
Septoria glycines; Table 14: A-1.3 0 ppm, Cyclobutrifluram 0.025 ppm
  Observed Activity (%): 50%
Septoria glycines; Table 14: A-1.3 0 ppm, Cyclobutrifluram 0.05 ppm
  Observed Activity (%): 70%
Septoria glycines; Table 14: A-1.3 0 ppm, Cyclobutrifluram 0.1 ppm
  Observed Activity (%): 70%
Septoria glycines; Table 14: A-1.3 0 ppm, Cyclobutrifluram 0.2 ppm
  Observed Activity (%): 90%
Corynespora cassiicola; Cyclobutrifluram 0.0125 ppm
  Observed Activity (%): 0%
Corynespora cassiicola; Cyclobutrifluram 0.025 ppm
  Observed Activity (%): 20%
Corynespora cassiicola; Cyclobutrifluram 0.05 ppm
  Observed Activity (%): 50%

## COc1ccnc(C(=O)N[C@@H](C)C(=O)O[C@@H](C)C(c2ccc(F)cc2)c2ccc(F)cc2)c1OC(C)=O [Florylpicoxamid]
Septoria glycines; Table 15: A-1.3 0 ppm, Florylpicoxamid 0.05 ppm
  Observed Activity (%): 70%
Septoria glycines; Table 15: A-1.3 0 ppm, Florylpicoxamid 0.1 ppm
  Observed Activity (%): 90%

## Cc1nc2c(F)c(F)ccc2cc1Oc1cccc(F)c1C(C)(C)O [Ipflufenoquin]
Septoria glycines; Table 16: A-1.3 0 ppm, Ipflufenoquin 0.6125 ppm
  Observed Activity (%): 70%
Septoria glycines; Table 16: A-1.3 0 ppm, Ipflufenoquin 1.25 ppm
  Observed Activity (%): 90%

## COc1c(F)c(F)c(C(=O)NCc2ncc(C(F)(F)F)cc2Cl)c(F)c1F [Fluopimomide]
Septoria glycines; Table 20: A-1.3 0 ppm, Fluopimomide 1.25 ppm
  Observed Activity (%): 0%
Septoria glycines; Table 20: A-1.3 0 ppm, Fluopimomide 2.5 ppm
  Observed Activity (%): 0%
Septoria glycines; Table 20: A-1.3 0 ppm, Fluopimomide 5 ppm
  Observed Activity (%): 0%
Septoria glycines; Table 20: A-1.3 0 ppm, Fluopimomide 10 ppm
  Observed Activity (%): 0%
Septoria glycines; Table 20: A-1.3 0 ppm, Fluopimomide 20 ppm
  Observed Activity (%): 0%

## Cc1cccc(-n2nnn(C)c2=O)c1COc1ccn(-c2ccc(Cl)cc2)n1 [Metyltetraprole]
Septoria glycines; Table 19: A-1.3 0 ppm, Metyltetraprole 0.003125 ppm
  Observed Activity (%): 50%
Septoria glycines; Table 19: A-1.3 0 ppm, Metyltetraprole 0.00625 ppm
  Observed Activity (%): 70%
Septoria glycines; Table 19: A-1.3 0 ppm, Metyltetraprole 0.0125 ppm
  Observed Activity (%): 90%
Septoria glycines; Table 23: A-1.3 0 ppm, Metyltetraprole 0.003125 ppm
  Observed Activity (%): 20%
Septoria glycines; Table 23: A-1.3 0 ppm, Metyltetraprole 0.00625 ppm
  Observed Activity (%): 70%
Septoria glycines; Table 23: A-1.3 0 ppm, Metyltetraprole 0.0125 ppm
  Observed Activity (%): 70%
Septoria glycines; Table 23: A-1.3 0 ppm, Metyltetraprole 0.025 ppm
  Observed Activity (%): 90%
Septoria glycines; Table 23: A-1.3 0 ppm, Metyltetraprole 0.05 ppm
  Observed Activity (%): 90%
Septoria glycines; Table 23: A-1.3 0 ppm, Metyltetraprole 0.1 ppm
  Observed Activity (%): 90%

## CO/C=C(/C(=O)OC)c1ccccc1CSc1nc2ccccc2s1 [Benzothiostrobin]
Septoria glycines; Table 22: A-1.3 0 ppm, Benzothiostrobin 0.0125 ppm
  Observed Activity (%): 50%
Septoria glycines; Table 22: A-1.3 0 ppm, Benzothiostrobin 0.025 ppm
  Observed Activity (%): 70%
Septoria glycines; Table 22: A-1.3 0 ppm, Benzothiostrobin 0.05 ppm
  Observed Activity (%): 90%
Septoria glycines; Table 22: A-1.3 0 ppm, Benzothiostrobin 0.1 ppm
  Observed Activity (%): 90%
Septoria glycines; Table 22: A-1.3 0 ppm, Benzothiostrobin 0.2 ppm
  Observed Activity (%): 90%

## COC(=O)C(O)(Cn1cncn1)c1ccc(Oc2ccc(Cl)cc2)cc1C(F)(F)F (centres unmarked) [Compound A-1.3, Methyl 2-[4-(4-chlorophenoxy)-2-(trifluoromethyl)phenyl]-2-hydroxy-3-(1,2,4-triazol-1-yl)propanoate]
Septoria glycines; Septoria glycines, Table 13: A-1.3 0.03 ppm, Cyclobutrifluram 0 ppm, read-out: Observed Activity (%)
  inhibition at 0.03 ppm: 0%
Septoria glycines; Septoria glycines, Table 14: A-1.3 0.06 ppm, Cyclobutrifluram 0 ppm, read-out: Observed Activity (%)
  inhibition at 0.06 ppm: 20%
[1]; Mycosphaerella arachidis, A-1.3 0.03 ppm, Pyriofenone 0 ppm, read-out: Observed Activity (%)
  inhibition at 0.03 ppm: 50%
Septoria tritici; Zymoseptoria tritici, Table 11: A-1.3 0.03 ppm, Pyrisoxazole 0 ppm, read-out: Observed Activity (%)
  inhibition at 0.03 ppm: 0%
Septoria tritici; Zymoseptoria tritici, Table 12: A-1.3 0.06 ppm, Pyrisoxazole 0 ppm, read-out: Observed Activity (%)
  inhibition at 0.06 ppm: 70%
Corynespora cassiicola; Corynespora cassiicola, A-1.3 0.03 ppm, Cyclobutrifluram 0 ppm, read-out: Observed Activity (%)
  inhibition at 0.03 ppm: 0%
Corynespora cassiicola; Corynespora cassiicola, A-1.3 0.2 ppm, Pyrisoxazole 0 ppm, read-out: Observed Activity (%)
  inhibition at 0.2 ppm: 20%

## COc1cc(C)c(C(=O)c2c(OC)ncc(Cl)c2C)c(OC)c1OC [Pyriofenone]
Septoria glycines; Table 21: A-1.3 0 ppm, Pyriofenone 1.25 ppm
  Observed Activity (%): 20%
Septoria glycines; Table 21: A-1.3 0 ppm, Pyriofenone 2.5 ppm
  Observed Activity (%): 20%
Septoria glycines; Table 21: A-1.3 0 ppm, Pyriofenone 5 ppm
  Observed Activity (%): 20%
Septoria glycines; Table 21: A-1.3 0 ppm, Pyriofenone 10 ppm
  Observed Activity (%): 20%
Septoria glycines; Table 21: A-1.3 0 ppm, Pyriofenone 20 ppm
  Observed Activity (%): 20%
[1]; Pyriofenone 2.5 ppm
  Observed Activity (%): 0%
[1]; Pyriofenone 5 ppm
  Observed Activity (%): 0%
[1]; Pyriofenone 10 ppm
  Observed Activity (%): 0%
[1]; Pyriofenone 20 ppm
  Observed Activity (%): 0%
